PubChem BioAssay AID248 (DTP/NCI, 2004)
Values joined by “and” are separate entries in the source; they are usually repeats but may differ in a detail not shown here. Equal entries are not always repeated. Toxic doses and inconclusive results are not listed. Rule as the data show it: active = T/C of 150% or more; inactive = T/C below 125%.

System: L1210 leukemia ip in BDF1 mice, survival T/C
Experiment: NCI In Vivo Anticancer Drug Screen. Data for tumor model L1210 Leukemia (intraperitoneal) in B6D2F1 (BDF1) mice
Conditions: endpoint: mean survival time, higher = longer survival
Outline: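 Survival endpoint. Drug-treated group vs vehicle group, expressed as T divided by C. Tumor passaged by transplantation.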

[1] = dose: 100.0 mg/kg/injection, schedule: Q01DX009 (ip), vehicle: saline with Tween-80
[2] = dose: 100.0 mg/kg/injection, schedule: Q01DX001 (ip), vehicle: saline with Tween-80
[3] = dose: 200.0 mg/kg/injection, schedule: Q01DX001 (ip), vehicle: saline with Tween-80
[4] = dose: 400.0 mg/kg/injection, schedule: Q01DX001 (ip), vehicle: saline with Tween-80
[5] = dose: 50.0 mg/kg/injection, schedule: Q01DX001 (ip), vehicle: saline
[6] = dose: 100.0 mg/kg/injection, schedule: Q01DX001 (ip), vehicle: saline
[7] = dose: 200.0 mg/kg/injection, schedule: Q01DX001 (ip), vehicle: saline
[8] = dose: 50.0 mg/kg/injection, schedule: Q01DX009 (ip), vehicle: Klucel (hydroxypropylcellulose) (HPC)
[9] = dose: 100.0 mg/kg/injection, schedule: Q01DX009 (ip), vehicle: Klucel (hydroxypropylcellulose) (HPC)
[10] = dose: 200.0 mg/kg/injection, schedule: Q01DX009 (ip), vehicle: Klucel (hydroxypropylcellulose) (HPC)
[11] = dose: 100.0 mg/kg/injection, schedule: Q04DX003 (ip), vehicle: Klucel (hydroxypropylcellulose) (HPC)
[12] = dose: 200.0 mg/kg/injection, schedule: Q04DX003 (ip), vehicle: Klucel (hydroxypropylcellulose) (HPC)
[13] = dose: 400.0 mg/kg/injection, schedule: Q04DX003 (ip), vehicle: Klucel (hydroxypropylcellulose) (HPC)
[14] = dose: 75.0 mg/kg/injection, schedule: Q01DX001 (ip), vehicle: saline
[15] = dose: 150.0 mg/kg/injection, schedule: Q01DX001 (ip), vehicle: saline
[16] = dose: 100.0 mg/kg/injection, schedule: Q04DX002 (ip), vehicle: saline with Tween-80
[17] = dose: 200.0 mg/kg/injection, schedule: Q04DX002 (ip), vehicle: saline with Tween-80
[18] = dose: 400.0 mg/kg/injection, schedule: Q04DX002 (ip), vehicle: saline with Tween-80
[19] = dose: 200.0 mg/kg/injection, schedule: Q01DX009 (ip), vehicle: saline with Tween-80
[20] = dose: 400.0 mg/kg/injection, schedule: Q01DX009 (ip), vehicle: saline with Tween-80
[21] = dose: 100.0 mg/kg/injection, schedule: Q01DX009 (ip), vehicle: saline
[22] = dose: 200.0 mg/kg/injection, schedule: Q01DX009 (ip), vehicle: saline

Measured: T/C

Cc1cc(Cl)ccc1OC(=O)Nc1cccc2ccccc12
inactive: dose: 50.0 mg/kg/injection, schedule: Q01DX009 (ip), vehicle: carboxymethylcellulose (CMC) 97 % of control and 101 % of control | dose: 50.0 mg/kg/injection, schedule: Q04DX003 (ip), vehicle: carboxymethylcellulose (CMC) 103 % of control | dose: 100.0 mg/kg/injection, schedule: Q01DX009 (ip), vehicle: carboxymethylcellulose (CMC) 102 % of control and 104 % of control | dose: 100.0 mg/kg/injection, schedule: Q04DX002 (ip), vehicle: Klucel (hydroxypropylcellulose) (HPC) 101 % of control | dose: 100.0 mg/kg/injection, schedule: Q04DX002 (ip), vehicle: carboxymethylcellulose (CMC) 98 % of control and 91 % of control | dose: 100.0 mg/kg/injection, schedule: Q04DX003 (ip), vehicle: carboxymethylcellulose (CMC) 100 % of control | dose: 200.0 mg/kg/injection, schedule: Q01DX009 (ip), vehicle: carboxymethylcellulose (CMC) 94 % of control and 92 % of control | dose: 200.0 mg/kg/injection, schedule: Q04DX002 (ip), vehicle: Klucel (hydroxypropylcellulose) (HPC) 112 % of control | dose: 200.0 mg/kg/injection, schedule: Q04DX002 (ip), vehicle: carboxymethylcellulose (CMC) 98 % of control and 100 % of control | dose: 200.0 mg/kg/injection, schedule: Q04DX003 (ip), vehicle: carboxymethylcellulose (CMC) 95 % of control | dose: 400.0 mg/kg/injection, schedule: Q04DX002 (ip), vehicle: Klucel (hydroxypropylcellulose) (HPC) 104 % of control | dose: 400.0 mg/kg/injection, schedule: Q04DX002 (ip), vehicle: carboxymethylcellulose (CMC) 104 % of control

CC1CCC2N(C1)CC1C3(O)CC4(O)C(CCC5C(=O)C(O)CCC54C)C3(O)CC(O)C1(O)C2(C)O (configuration not stated)
inactive: dose: 5.0 mg/kg/injection, schedule: Q01DX001 (ip), vehicle: saline 98 % of control | dose: 10.0 mg/kg/injection, schedule: Q01DX001 (ip), vehicle: saline 98 % of control | dose: 20.0 mg/kg/injection, schedule: Q01DX001 (ip), vehicle: saline 98 % of control

CC(C)(C)P(=O)(O)O
inactive: [1] 95 % of control

CCCCCCCCCCCCCCC
inactive: [2] 107 % of control | [3] 95 % of control | [4] 91 % of control

CC1CCCCN1C(CC(=O)c1ccccc1)C(=O)c1ccccc1 (configuration not stated)
inactive: [5] 97 % of control | [6] 95 % of control | [7] 101 % of control | dose: 400.0 mg/kg/injection, schedule: Q01DX001 (ip), vehicle: saline 101 % of control

Br/C(=C(/Br)c1ccccc1)c1ccccc1
inactive: [8] 105 % of control | [9] 91 % of control | [10] 102 % of control

O=C(NCC(O)CCl)c1ccc([N+](=O)[O-])cc1 (configuration not stated)
inactive: dose: 100.0 mg/kg/injection, schedule: Q01DX001 (ip), vehicle: Klucel (hydroxypropylcellulose) (HPC) 95 % of control | [11] 97 % of control | dose: 200.0 mg/kg/injection, schedule: Q01DX001 (ip), vehicle: Klucel (hydroxypropylcellulose) (HPC) 103 % of control | [12] 105 % of control | dose: 400.0 mg/kg/injection, schedule: Q01DX001 (ip), vehicle: Klucel (hydroxypropylcellulose) (HPC) 95 % of control | [13] 92 % of control

CC(C)(C)N1CCC1CO (configuration not stated)
inactive: [14] 106 % of control | [15] 97 % of control

Cc1cc(C)c(S(=O)(=O)O)c(Cc2ccc3ccccc3c2)c1
inactive: [6] 94 % of control

COc1ccc(C2NC(=O)CCC2[N+](=O)[O-])cc1OC (configuration not stated)
inactive: [16] 91 % of control | [17] 91 % of control | [18] 94 % of control

CN1CCN(c2ccc(Cl)cc2)CC1
inactive: dose: 25.0 mg/kg/injection, schedule: Q01DX009 (ip), vehicle: Klucel (hydroxypropylcellulose) (HPC) 97 % of control | dose: 25.0 mg/kg/injection, schedule: Q04DX003 (ip), vehicle: Klucel (hydroxypropylcellulose) (HPC) 97 % of control | [8] 106 % of control | dose: 50.0 mg/kg/injection, schedule: Q04DX003 (ip), vehicle: Klucel (hydroxypropylcellulose) (HPC) 105 % of control | [9] 100 % of control | [11] 106 % of control

O=C1C(=O)N2c3ccccc3CCc3cccc1c32
inactive: [2] 103 % of control | [1] 96 % of control | [3] 93 % of control | [19] 100 % of control | [4] 97 % of control | [20] 100 % of control

c1ccc2c(B(c3cccc4ccccc34)c3cccc4ccccc34)cccc2c1
inactive: [11] 94 % of control | [12] 97 % of control | [13] 102 % of control

COc1ccc(C2CCc3cc4c(cc3C2=O)OCO4)cc1OC (configuration not stated)
inactive: [1] 98 % of control | [19] 98 % of control | [20] 98 % of control

CCOC(=O)/C(C#N)=C(\C)CCc1ccccc1
inactive: [14] 104 % of control | [15] 101 % of control | dose: 300.0 mg/kg/injection, schedule: Q01DX001 (ip), vehicle: saline 101 % of control

COc1cc(N)c2nccc(N(C)C)c2c1
inactive: [21] 99 % of control | dose: 100.0 mg/kg/injection, schedule: Q04DX003 (ip), vehicle: saline 97 % of control | [22] 107 % of control | dose: 200.0 mg/kg/injection, schedule: Q04DX003 (ip), vehicle: saline 103 % of control | dose: 400.0 mg/kg/injection, schedule: Q04DX003 (ip), vehicle: saline 101 % of control

CCOC(=O)/C=C(\C)C(C)=O
inactive: [1] 92 % of control | dose: 100.0 mg/kg/injection, schedule: Q04DX003 (ip), vehicle: saline with Tween-80 98 % of control | [19] 96 % of control | dose: 200.0 mg/kg/injection, schedule: Q04DX003 (ip), vehicle: saline with Tween-80 103 % of control | [20] 92 % of control | dose: 400.0 mg/kg/injection, schedule: Q04DX003 (ip), vehicle: saline with Tween-80 104 % of control

CC(=O)OCCc1ccc(Cl)cc1
inactive: [16] 93 % of control | [17] 96 % of control | [18] 100 % of control

CC(=O)OC1CC(OC2C(O)CC(OC3C(O)CC(OC4CCC5(C)C(CCC6C5CC(O)C5(C)C(C7=CC(=O)OC7)CCC65O)C4)OC3C)OC2C)OC(C)C1OC1OC(CO)C(O)C(O)C1O (configuration not stated)
inactive: dose: 50.0 mg/kg/injection, schedule: Q01DX001 (sc), vehicle: steriod suspending solution 100 % of control | dose: 75.0 mg/kg/injection, schedule: Q01DX001 (ip), vehicle: other 95 % of control | dose: 100.0 mg/kg/injection, schedule: Q01DX001 (sc), vehicle: steriod suspending solution 109 % of control | dose: 150.0 mg/kg/injection, schedule: Q01DX001 (ip), vehicle: other 97 % of control | dose: 200.0 mg/kg/injection, schedule: Q01DX001 (sc), vehicle: steriod suspending solution 103 % of control | dose: 300.0 mg/kg/injection, schedule: Q01DX001 (ip), vehicle: other 93 % of control | dose: 400.0 mg/kg/injection, schedule: Q01DX001 (sc), vehicle: steriod suspending solution 105 % of control

C(=C\C[n+]1ccccc1)/C[n+]1ccccc1
inactive: [5] 106 % of control | [6] 112 % of control | [7] 106 % of control

ClC(Cl)(Cl)C(N1CCN(c2ccccc2)CC1)N1CCN(c2ccccc2)CC1
inactive: dose: 100.0 mg/kg/injection, schedule: Q01DX001 (ip), vehicle: carboxymethylcellulose (CMC) 101 % of control | dose: 200.0 mg/kg/injection, schedule: Q01DX001 (ip), vehicle: carboxymethylcellulose (CMC) 106 % of control | dose: 400.0 mg/kg/injection, schedule: Q01DX001 (ip), vehicle: carboxymethylcellulose (CMC) 89 % of control

O=C(Nc1cccc([N+](=O)[O-])c1)c1cccc(C(=O)Nc2cccc([N+](=O)[O-])c2)c1
inactive: [9] 94 % of control | [10] 89 % of control | dose: 400.0 mg/kg/injection, schedule: Q01DX009 (ip), vehicle: Klucel (hydroxypropylcellulose) (HPC) 89 % of control

OC1CC2CCC1C21OCCO1 (configuration not stated)
inactive: [21] 107 % of control | [22] 100 % of control | dose: 400.0 mg/kg/injection, schedule: Q01DX009 (ip), vehicle: saline 109 % of control
